# Test results from ChEMBL document CHEMBL1201862, “PubChem BioAssay data set” (2004).
# Activity calls are given as the source filed them.
# What was measured:
# HEK293 [1] = assay: NOD1 signaling inhibitors, primary screen, cell-based, luminescence, uHTS (AID 1578); type: functional; conditions: Homo sapiens
# HEK293 [2] = assay: cells; type: functional, cell-based; conditions: Homo sapiens
# HEK293 [3] = assay: cells; type: functional, cell-based; conditions: Homo sapiens; remark: listed apart in the source
# HEK293 [4] = assay: NOD2 signaling inhibitors in MDP-stimulated cells, cell-based, uHTS, luminescence (AID 2001); type: functional; conditions: Homo sapiens
# [5] = target: Induced myeloid leukemia cell differentiation protein Mcl-1 (Homo sapiens, UniProt Q07820); type: functional
# Chain of Induced myeloid leukemia cell differentiation protein Mcl-1 (Q07820 whole entry): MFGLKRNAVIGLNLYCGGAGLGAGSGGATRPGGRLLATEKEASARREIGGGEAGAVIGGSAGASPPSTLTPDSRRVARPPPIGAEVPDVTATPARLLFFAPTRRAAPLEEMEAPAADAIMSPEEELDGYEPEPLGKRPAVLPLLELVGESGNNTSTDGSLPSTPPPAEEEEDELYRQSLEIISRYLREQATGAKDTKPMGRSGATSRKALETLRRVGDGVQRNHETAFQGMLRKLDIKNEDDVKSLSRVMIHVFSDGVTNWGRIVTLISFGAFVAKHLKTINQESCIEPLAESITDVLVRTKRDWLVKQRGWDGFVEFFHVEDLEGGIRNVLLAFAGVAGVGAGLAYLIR
# Cysteine protease ATG4B = target: T1, Cysteine protease ATG4B (Homo sapiens, UniProt Q9Y4P1); type: functional;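 also: Fluorescence-based dose-response confirmation assay measuring inhibition of ATG4B activity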
# T1 sequence (Q9Y4P1 whole entry): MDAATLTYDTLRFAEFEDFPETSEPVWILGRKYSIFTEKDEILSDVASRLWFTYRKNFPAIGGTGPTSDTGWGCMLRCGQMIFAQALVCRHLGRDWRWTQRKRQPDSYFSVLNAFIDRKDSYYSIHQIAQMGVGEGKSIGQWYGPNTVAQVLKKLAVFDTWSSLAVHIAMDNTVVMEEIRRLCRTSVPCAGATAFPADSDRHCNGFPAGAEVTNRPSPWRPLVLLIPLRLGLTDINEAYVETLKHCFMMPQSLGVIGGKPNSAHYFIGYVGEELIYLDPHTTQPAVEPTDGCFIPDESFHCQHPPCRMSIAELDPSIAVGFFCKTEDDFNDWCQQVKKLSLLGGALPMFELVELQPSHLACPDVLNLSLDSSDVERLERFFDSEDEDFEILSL
# Phospholipase A2 = Phospholipase A2 (Homo sapiens, UniProt P04054); type: functional;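 also: confirmatory dose-response counterscreen on phospholipase A2, testing hits that came from an ultra-high-throughput screen for ATG4B inhibitors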
# Chain of Phospholipase A2 (P04054 whole entry): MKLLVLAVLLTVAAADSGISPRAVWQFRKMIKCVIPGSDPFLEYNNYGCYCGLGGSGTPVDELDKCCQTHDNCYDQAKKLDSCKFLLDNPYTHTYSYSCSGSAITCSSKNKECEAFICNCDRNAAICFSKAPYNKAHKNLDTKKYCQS
# Genome polyprotein = Genome polyprotein (dengue virus type 2, UniProt P29990); assay: Dengue-2 NS5 methyltransferase inhibitors, primary screen, biochemical, confirmation dose response (AID 588689); type: functional
# Chain of Genome polyprotein (P29990 2492-3391 limits assumed): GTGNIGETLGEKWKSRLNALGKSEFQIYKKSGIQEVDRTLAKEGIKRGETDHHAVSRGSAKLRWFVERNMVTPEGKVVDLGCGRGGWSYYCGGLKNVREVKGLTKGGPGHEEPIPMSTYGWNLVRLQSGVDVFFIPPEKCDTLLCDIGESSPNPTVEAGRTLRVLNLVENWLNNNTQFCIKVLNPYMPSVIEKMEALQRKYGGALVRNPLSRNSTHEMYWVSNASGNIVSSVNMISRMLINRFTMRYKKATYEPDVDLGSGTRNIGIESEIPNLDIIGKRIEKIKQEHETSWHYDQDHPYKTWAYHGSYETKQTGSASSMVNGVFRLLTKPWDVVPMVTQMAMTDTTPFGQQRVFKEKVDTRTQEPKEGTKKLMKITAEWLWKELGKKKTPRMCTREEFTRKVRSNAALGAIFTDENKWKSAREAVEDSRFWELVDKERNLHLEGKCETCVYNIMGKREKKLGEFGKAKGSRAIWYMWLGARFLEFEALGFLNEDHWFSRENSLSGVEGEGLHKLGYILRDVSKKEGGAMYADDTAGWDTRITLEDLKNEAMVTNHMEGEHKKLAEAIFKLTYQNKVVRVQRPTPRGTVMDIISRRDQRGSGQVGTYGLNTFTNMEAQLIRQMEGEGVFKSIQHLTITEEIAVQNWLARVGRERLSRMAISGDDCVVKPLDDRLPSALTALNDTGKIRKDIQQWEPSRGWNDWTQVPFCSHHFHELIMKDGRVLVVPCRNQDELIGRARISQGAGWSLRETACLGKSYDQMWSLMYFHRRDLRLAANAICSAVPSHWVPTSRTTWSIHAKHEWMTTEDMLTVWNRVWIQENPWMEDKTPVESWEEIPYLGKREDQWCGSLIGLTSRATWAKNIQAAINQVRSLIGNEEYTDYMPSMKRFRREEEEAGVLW
# [6] = target: T2, Corticotropin-releasing factor receptor 2/Corticotropin-releasing factor-binding protein (Homo sapiens, UniProt P24387+Q13324); assay: Dose Response confirmation of uHTS hits for small molecule antagonists of the CRF-binding protein and CRF-R2 receptor complex.; type: functional; conditions: read-out: IC50_Mean
# T2 sequence (Q13324 whole entry): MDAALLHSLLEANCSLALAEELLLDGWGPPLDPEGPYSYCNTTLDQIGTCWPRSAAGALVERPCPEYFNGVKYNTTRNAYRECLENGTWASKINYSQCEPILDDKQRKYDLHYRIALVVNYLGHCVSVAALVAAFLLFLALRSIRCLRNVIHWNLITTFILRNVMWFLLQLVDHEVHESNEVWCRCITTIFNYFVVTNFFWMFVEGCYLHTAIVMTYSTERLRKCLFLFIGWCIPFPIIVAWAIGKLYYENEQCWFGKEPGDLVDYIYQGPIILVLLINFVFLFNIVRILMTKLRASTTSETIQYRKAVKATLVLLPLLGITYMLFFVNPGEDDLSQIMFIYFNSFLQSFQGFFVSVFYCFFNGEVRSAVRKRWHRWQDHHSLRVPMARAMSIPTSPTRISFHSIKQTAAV
# T2 sequence (P24387 whole entry): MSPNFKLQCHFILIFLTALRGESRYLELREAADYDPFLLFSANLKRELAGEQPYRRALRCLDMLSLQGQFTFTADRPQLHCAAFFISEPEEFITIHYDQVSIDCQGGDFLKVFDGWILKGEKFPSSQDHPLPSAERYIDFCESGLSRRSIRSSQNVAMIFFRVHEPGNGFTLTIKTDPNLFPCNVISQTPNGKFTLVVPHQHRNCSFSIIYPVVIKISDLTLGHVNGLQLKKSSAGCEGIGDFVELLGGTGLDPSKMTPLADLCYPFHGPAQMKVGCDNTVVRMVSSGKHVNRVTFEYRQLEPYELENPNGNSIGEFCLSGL
# [7] = target: T2, Corticotropin-releasing factor receptor 2/Corticotropin-releasing factor-binding protein; assay: activators of CRF receptor 2 with binding protein – uHTS hits, confirmation (AID 602473); type: functional; conditions: read-out: EC50_Mean
# [8] = CRF-BP/CRF-R2 complex antagonists, dose response, cell-based, uHTS hits, 384-well (AID 651639); type: functional, Homo sapiens; conditions: read-out: IC50_Mean
# Cytochrome P450 2D6 = Cytochrome P450 2D6 (Homo sapiens, UniProt P10635);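 also: CYP2D6 member of a cytochrome P450 panel assay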
# Chain of Cytochrome P450 2D6 (P10635 whole entry): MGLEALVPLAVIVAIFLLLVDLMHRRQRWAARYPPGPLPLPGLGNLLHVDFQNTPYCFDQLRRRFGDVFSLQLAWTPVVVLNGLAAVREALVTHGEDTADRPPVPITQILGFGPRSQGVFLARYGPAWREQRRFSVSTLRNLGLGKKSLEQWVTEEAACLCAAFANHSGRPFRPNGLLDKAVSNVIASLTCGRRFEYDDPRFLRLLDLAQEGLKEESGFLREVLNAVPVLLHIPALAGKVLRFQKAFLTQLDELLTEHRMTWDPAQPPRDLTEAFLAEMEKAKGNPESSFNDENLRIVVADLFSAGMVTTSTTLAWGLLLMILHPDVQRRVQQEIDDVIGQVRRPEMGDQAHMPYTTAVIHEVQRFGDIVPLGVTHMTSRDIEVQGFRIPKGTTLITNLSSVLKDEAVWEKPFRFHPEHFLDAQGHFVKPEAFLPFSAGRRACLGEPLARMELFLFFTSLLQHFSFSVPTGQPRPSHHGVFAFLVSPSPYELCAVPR
# Cytochrome P450 1A2 = target: T3, Cytochrome P450 1A2 (Homo sapiens, UniProt P05177);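 also: PubChem cytochrome P450 panel assay, CYP1A2 panel member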
# T3 sequence (P05177 whole entry): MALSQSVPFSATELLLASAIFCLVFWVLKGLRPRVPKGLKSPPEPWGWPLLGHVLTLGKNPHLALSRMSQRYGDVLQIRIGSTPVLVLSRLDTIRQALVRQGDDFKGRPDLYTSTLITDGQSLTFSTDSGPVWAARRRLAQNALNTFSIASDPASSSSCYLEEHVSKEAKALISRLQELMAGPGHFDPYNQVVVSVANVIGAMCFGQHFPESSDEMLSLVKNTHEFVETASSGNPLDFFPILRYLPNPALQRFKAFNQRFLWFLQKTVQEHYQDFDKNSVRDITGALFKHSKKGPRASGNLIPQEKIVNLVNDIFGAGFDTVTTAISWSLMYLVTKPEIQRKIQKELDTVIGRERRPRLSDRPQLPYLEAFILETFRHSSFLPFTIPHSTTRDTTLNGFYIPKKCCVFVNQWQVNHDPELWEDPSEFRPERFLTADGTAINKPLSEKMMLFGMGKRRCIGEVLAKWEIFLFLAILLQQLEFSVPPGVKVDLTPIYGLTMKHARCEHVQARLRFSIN
# Cytochrome P450 3A4 = Cytochrome P450 3A4 (Homo sapiens, UniProt P08684);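 also: CYP3A4 tested as one member of a cytochrome P450 panel screen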
# [9] = target: Dual specificity tyrosine-phosphorylation-regulated kinase 1A (Rattus norvegicus, UniProt Q63470); type: biochemical, Homo sapiens
# [10] = target: T4, Polyadenylate-binding protein 1 (Homo sapiens, UniProt P11940); assay: PABP1 MLLE–PAM2 interaction inhibitors, dose response, miRNA deadenylation inhibitor project, biochemical, fluorescence polarization, Cy5-PAM2 peptide, secondary (AID 602260); type: functional; conditions: read-out: IC50_Mean
# T4 sequence (P11940 whole entry): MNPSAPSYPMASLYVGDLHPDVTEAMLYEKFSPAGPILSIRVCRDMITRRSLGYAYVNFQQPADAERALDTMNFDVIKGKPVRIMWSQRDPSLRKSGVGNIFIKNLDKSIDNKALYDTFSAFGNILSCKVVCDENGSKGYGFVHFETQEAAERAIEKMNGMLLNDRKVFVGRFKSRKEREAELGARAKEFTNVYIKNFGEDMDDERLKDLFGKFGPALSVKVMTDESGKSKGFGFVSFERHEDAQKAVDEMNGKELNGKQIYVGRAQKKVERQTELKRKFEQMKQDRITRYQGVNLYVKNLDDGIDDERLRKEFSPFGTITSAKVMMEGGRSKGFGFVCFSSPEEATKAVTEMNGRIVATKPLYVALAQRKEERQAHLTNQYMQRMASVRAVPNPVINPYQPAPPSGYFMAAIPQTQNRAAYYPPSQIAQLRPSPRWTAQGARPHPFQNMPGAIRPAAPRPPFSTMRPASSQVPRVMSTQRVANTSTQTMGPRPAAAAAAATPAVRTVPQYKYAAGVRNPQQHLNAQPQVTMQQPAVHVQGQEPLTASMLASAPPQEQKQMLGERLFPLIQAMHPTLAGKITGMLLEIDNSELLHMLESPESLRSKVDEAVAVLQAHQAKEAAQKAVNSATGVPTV
# [11] = target: T4, Polyadenylate-binding protein 1; assay: PABP1 MLLE–PAM2 binding inhibitor potency, dose response, biochemical, fluorescence polarization, FITC-PAM2 peptide (AID 602259); type: functional; conditions: read-out: IC50_Mean
# Cytochrome P450 2C9 = Cytochrome P450 2C9 (Homo sapiens, UniProt P11712)
# [12] = target: Luciferin 4-monooxygenase (Photinus pyralis, UniProt P08659); assay: firefly luciferase enzyme inhibitors, dose response, biochemical, luminescence (AID 1891)
# Chain of Luciferin 4-monooxygenase (P08659 whole entry): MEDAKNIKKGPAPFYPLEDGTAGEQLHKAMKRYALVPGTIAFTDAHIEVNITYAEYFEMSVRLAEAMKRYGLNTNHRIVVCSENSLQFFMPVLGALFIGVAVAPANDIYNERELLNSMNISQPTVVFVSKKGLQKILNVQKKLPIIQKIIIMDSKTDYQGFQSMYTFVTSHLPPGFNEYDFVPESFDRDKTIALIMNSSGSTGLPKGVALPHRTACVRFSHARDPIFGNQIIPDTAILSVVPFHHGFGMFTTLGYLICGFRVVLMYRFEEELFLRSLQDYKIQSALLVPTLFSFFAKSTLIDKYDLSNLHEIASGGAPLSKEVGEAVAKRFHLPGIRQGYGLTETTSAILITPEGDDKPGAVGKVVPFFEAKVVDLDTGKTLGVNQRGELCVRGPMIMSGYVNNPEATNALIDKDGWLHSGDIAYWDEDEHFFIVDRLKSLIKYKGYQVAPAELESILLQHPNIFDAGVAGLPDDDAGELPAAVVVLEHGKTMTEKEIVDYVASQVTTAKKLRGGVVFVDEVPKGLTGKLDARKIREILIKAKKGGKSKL
# [13] = Luminescence Cell-Based Dose Confirmation HTS to Identify Inhibitors of Platelet Dense Granule Release. [Related pubchem assays: 1663 (Primary HTS), 1678 (Summary of Project)]; type: functional
# [14] = target: T5, Probable nicotinate-nucleotide adenylyltransferase (Staphylococcus aureus (strain N315), UniProt P65502); type: functional, Staphylococcus aureus subsp. aureus N315;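 as to IC50 Mean: confirmatory dose-response retesting of NadD inhibitor hits first found in an ultra-high-throughput screen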
# T5 sequence (P65502 whole entry): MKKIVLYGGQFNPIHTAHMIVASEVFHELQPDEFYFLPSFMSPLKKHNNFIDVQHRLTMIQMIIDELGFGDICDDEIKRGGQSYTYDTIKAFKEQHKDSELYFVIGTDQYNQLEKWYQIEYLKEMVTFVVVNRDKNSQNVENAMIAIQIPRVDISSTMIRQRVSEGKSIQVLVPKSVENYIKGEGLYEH
# [15] = target: T5, Probable nicotinate-nucleotide adenylyltransferase; type: functional, Staphylococcus aureus subsp. aureus N315; conditions: read-out: IC50_Mean
# [16] = target: T6, RNA-binding protein pos-1 (Caenorhabditis elegans, UniProt G5EF15); assay: inhibitors of POS-1/mex-3 RNA binding, dose response, biochemical, fluorescence polarization (AID 1964);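 also: purified POS-1 fused to maltose binding protein made in E. coli; potency of compounds blocking POS-1 binding to fluorescent RNA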
# T6 sequence (G5EF15 whole entry): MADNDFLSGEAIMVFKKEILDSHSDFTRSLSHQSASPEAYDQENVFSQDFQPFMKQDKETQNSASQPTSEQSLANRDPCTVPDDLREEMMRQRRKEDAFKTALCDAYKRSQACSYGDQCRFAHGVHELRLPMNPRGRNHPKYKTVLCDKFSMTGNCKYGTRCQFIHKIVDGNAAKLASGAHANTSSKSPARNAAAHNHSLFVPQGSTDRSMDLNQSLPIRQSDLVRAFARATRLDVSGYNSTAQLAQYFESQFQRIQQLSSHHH
# [17] = target: T7, Zinc finger protein mex-5 (Caenorhabditis elegans, UniProt Q9XUB2); assay: MEX-5/TCR-2 RNA interaction inhibitors, dose response, biochemical, C. elegans, fluorescence polarization (AID 1960)
# T7 sequence (Q9XUB2 whole entry): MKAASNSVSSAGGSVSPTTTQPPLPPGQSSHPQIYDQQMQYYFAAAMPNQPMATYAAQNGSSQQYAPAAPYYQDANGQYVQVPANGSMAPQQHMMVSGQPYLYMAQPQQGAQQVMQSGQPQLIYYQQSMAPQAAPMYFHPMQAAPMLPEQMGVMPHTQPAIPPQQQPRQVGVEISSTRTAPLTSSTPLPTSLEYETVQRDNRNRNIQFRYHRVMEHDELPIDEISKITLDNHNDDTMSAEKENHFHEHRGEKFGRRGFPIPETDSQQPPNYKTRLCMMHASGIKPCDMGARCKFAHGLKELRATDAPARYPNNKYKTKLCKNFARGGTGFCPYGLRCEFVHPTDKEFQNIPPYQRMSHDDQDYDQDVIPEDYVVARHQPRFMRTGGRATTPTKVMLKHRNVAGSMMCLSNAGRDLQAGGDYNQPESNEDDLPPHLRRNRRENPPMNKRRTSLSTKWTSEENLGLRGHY
# [18] = target: 26S proteasome non-ATPase regulatory subunit 14 (Homo sapiens, UniProt O00487); assay: inhibition of proteasome subunit RPN11 – biochemical, fluorescence polarization, uHTS hits, confirmation (AID 602368); type: functional
# Chain of 26S proteasome non-ATPase regulatory subunit 14 (O00487 whole entry): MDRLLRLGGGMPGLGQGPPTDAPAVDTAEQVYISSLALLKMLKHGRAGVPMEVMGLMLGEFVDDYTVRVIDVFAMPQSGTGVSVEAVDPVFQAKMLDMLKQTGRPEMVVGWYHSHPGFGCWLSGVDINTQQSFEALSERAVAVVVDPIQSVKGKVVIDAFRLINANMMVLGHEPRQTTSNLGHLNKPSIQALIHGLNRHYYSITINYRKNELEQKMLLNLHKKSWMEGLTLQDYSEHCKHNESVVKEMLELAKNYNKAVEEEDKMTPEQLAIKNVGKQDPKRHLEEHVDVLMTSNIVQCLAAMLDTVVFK
# [19] = target: 72 kDa type IV collagenase (Homo sapiens, UniProt P08253); assay: Dose Response validation of uHTS RPN11 inhibitor hits using a MMP-2 Fluorescence assay.; type: functional
# Chain of 72 kDa type IV collagenase (P08253 whole entry): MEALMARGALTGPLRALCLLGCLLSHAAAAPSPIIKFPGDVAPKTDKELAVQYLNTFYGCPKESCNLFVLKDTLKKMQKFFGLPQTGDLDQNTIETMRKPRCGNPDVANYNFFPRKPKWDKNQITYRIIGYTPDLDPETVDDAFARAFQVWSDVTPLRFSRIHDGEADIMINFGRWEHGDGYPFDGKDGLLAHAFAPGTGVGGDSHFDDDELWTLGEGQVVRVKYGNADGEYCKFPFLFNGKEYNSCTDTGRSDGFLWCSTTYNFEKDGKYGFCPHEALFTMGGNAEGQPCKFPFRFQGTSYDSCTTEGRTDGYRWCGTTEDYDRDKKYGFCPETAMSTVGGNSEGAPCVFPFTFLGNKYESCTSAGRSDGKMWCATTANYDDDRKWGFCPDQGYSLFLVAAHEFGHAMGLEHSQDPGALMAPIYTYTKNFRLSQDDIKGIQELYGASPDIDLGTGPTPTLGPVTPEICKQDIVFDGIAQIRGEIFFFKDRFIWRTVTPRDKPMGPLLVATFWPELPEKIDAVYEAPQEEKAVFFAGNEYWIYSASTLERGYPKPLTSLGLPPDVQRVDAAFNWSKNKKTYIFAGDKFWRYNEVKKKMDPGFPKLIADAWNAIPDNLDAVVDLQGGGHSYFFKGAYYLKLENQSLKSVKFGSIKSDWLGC
# Prothrombin = Prothrombin (Bos taurus, UniProt P00735); assay: thrombin inhibition, dose response, biochemical, fluorescence polarization, uHTS hits (AID 602369); type: functional
# Melanocortin receptor 4 = Melanocortin receptor 4 (Homo sapiens, UniProt P32245); type: functional, cell-based;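 also: Cell-based assay with luminescence read-out, confirmatory dose-response testing for agonist activity of biased ligands at MC4R; human U2OS cells with tagged receptor and beta-arrestin; potency of agonists that increase receptor coupling to beta-arrestin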
# Chain of Melanocortin receptor 4 (P32245 whole entry): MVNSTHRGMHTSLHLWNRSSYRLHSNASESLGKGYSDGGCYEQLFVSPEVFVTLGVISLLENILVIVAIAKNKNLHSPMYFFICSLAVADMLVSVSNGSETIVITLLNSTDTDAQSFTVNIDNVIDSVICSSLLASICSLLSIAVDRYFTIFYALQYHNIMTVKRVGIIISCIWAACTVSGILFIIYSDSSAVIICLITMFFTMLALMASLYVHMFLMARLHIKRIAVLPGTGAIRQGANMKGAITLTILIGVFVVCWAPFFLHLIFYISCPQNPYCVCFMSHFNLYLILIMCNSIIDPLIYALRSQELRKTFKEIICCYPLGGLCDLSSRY
smiles,measurement,setting,value
CC(/C=C1\SC(=S)N(c2ccc(C(=O)O)cc2)C1=O)=C\c1ccccc1,EC50,HEK293 [1],8.26 µM (active)
same,IC50,HEK293 [2],4.09 µM (active)
same,IC50,HEK293 [3],> 20 µM (inactive)
same,IC50,HEK293 [4],5.93 µM (active)
same,IC50,[5],3.09 µM (active)
same,IC50,Cysteine protease ATG4B,5.25 µM (active)
same,IC50,Phospholipase A2,1.88 µM (active)
same,IC50,Genome polyprotein,33.7 µM (active)
O=C1CC(c2cccc(F)c2)SC(N(c2ccccc2)c2ccccc2)=N1 (configuration not stated),IC50,[6],9.86 µM (active)
same,EC50,[7],> 53 µM (inactive)
same,IC50,[8],16 µM (active)
same,AC50,Cytochrome P450 2D6,25.1 µM (inconclusive)
same,AC50,Cytochrome P450 1A2,8.91 µM (inconclusive)
same,AC50,Cytochrome P450 3A4,17.8 µM (inconclusive)
COC(=O)C1=C(C(=O)OC)C(c2cc(Br)ccc2O)c2sc(O)nc2S1 (configuration not stated),IC50,Genome polyprotein,81.6 µM (active)
same,AC50,[9],24.6 µM (active)
same,IC50,[10],> 66 µM (inactive)
same,IC50,[11],> 66 µM (inactive)
COc1ccc(C(C(=O)NC2CCCCC2)N(C(=O)c2sc(C)nc2C)c2ccc(OC)cc2)cc1 (configuration not stated),IC50,[6],8.51 µM (active)
same,EC50,[7],> 53 µM (inactive)
same,IC50,[8],> 20 µM (inactive)
same,AC50,Cytochrome P450 2C9,17.8 µM (inconclusive)
CCCCOc1ccccc1C1C(C(=O)OC)=CN(CC)C=C1C(=O)OC,EC50,[12],> 112 µM (not active)
same,EC50,[13],> 112 µM (not active)
same,IC50,[6],3.74 µM (active)
same,EC50,[7],> 53 µM (inactive)
same,IC50,[8],16 µM (active)
COc1ccc(Br)cc1CNC(=O)CN1C(=O)C(c2ccccc2)Oc2cccnc21 (configuration not stated),IC50,[14],14.3 µM (active)
same,IC50,[15],31.6 µM (active)
COc1ccccc1N1C(=O)S/C(=C\c2ccc(C)s2)C1=O,EC50,[16],> 300 µM (not active)
same,EC50,[17],10.1 µM (inconclusive)
same,IC50,[18],23.5 µM (active)
same,IC50,[19],> 100 µM (inactive)
same,IC50,Prothrombin,36.3 µM (active)
O=C(CCN1C(=O)NC2(CCCC2)C1=O)Nc1ccc(-c2nc3ccccc3s2)cc1,IC50,[18],19.3 µM (active)
same,IC50,[19],> 100 µM (inactive)
same,IC50,Prothrombin,19.5 µM (active)
Cc1ccccc1S(=O)(=O)Nc1nc2ccccc2nc1N1CCc2ccccc2C1,IC50,Cysteine protease ATG4B,29.9 µM (inactive)
same,IC50,Phospholipase A2,16.8 µM (active)
CCOc1ccc(NC(=O)CSc2nc(-c3cccs3)cc(C(F)(F)F)n2)c([N+](=O)[O-])c1,EC50,Melanocortin receptor 4,> 89.2 µM (inactive)
O=C(CC1N=C2c3ccccc3N=C(SCc3ccc(Cl)cc3)N2C1=O)NCc1ccco1 (configuration not stated),IC50,[14],7.43 µM (active)
same,IC50,[15],23.6 µM (active)
Cc1cc(C)c(CN2CCN(CCCn3cnc(C(=O)Nc4ccc(C)c(C)c4)n3)CC2)c(C)c1,EC50,Melanocortin receptor 4,> 89.2 µM (inactive)
O=C(NC(c1ccc(Cl)cc1)c1cccnc1)C1CCN(CCOc2ccc(Cl)cc2Cl)CC1 (configuration not stated),EC50,Melanocortin receptor 4,> 89.2 µM (inactive)
Cc1ccc(OC(=O)N(C)C[C@@H]2OCc3cnnn3CCCC(=O)N([C@@H](C)CO)C[C@@H]2C)cc1,IC50,[6],< 0.368 µM (active)
same,EC50,[7],> 53 µM (inactive)
same,IC50,[8],> 20 µM (inactive)
